# Measurements from patent publication US12319676B2, “Substituted amide compounds useful as farnesoid X receptor modulators” (BRISTOL-MYERS SQUIBB COMPANY, priority 2019, dated 2025).
# Molecular target: T1, human FXR (Homo sapiens, UniProt Q96RI1)
# T1 construct: expressed in transfected cells; host or cells: HEK293 cells stably carrying a 5xGal4 response element-luciferase reporter, transiently transfected with pcDNA3.1-Gal4-FXR
# T1 sequence (Q96RI1 262-486 limits assumed): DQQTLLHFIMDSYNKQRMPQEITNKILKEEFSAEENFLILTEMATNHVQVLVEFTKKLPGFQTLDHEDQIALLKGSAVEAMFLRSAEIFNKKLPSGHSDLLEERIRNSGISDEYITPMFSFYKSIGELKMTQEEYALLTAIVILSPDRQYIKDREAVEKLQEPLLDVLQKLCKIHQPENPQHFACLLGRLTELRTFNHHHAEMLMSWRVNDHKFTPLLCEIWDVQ
# Assay: transient human FXR/Gal4-luciferase reporter assay
# Assay type: cell-based
# Details: Gal4-hFXR fusion construct, luciferase reporter in HEK293 cells; overnight incubation; response as percentage of 8 μM GW-4064 control
# Outline: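 HEK293 cells stably carrying a 5×Gal4-response-element firefly luciferase reporter were transiently transfected with a Gal4 DBD-human FXR LBD fusion, then treated overnight with compounds at 37 °C. Steady-Glo luminescence, minus DMSO background, was expressed as percent of the response to 8 μM GW-4064.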
row,Structure (SMILES),EC50 [nM]
1,"N#Cc1cc(F)cc(N(CC23CCC(c4nc(C5CC5)no4)(CC2)CC3)C(=O)C23CC(F)(C2)C3)c1 [Example 62, N-(3-cyano-5-fluorophenyl)-N-((4-(3-cyclopropyl-1,2,4-oxadiazol-5-yl)bicyclo[2.2.2]octan-1-yl)methyl)-3-fluorobicyclo[1.1.1]pentane-1-carboxamide]",185
2,"N#Cc1cc(F)cc(N(CC23CCC(c4nc(C5CC5)no4)(CC2)CC3)C(=O)[C@H]2C[C@](O)(C(F)(F)F)C2)c1 [Example 63, (1S,3S)-N-(3-cyano-5-fluorophenyl)-N-((4-(3-cyclopropyl 1,2,4-oxadiazol-5-yl)bicyclo[2.2.2]octan-1-yl)methyl)-3-hydroxy-3-(trifluoromethyl)cyclobutane-1-carboxamide]",1050
3,"N#Cc1cc(F)cc(N(CC23CCC(c4nc(C5CC5)no4)(CC2)CC3)C(=O)C2CC(F)(F)C2)c1 [Example 64, N-(3-cyano-5-fluorophenyl)-N-((4-(3-cyclopropyl-1,2,4-oxadiazol-5-yl)bicyclo[2.2.2]octan-1-yl)methyl)-3,3-difluorocyclobutane-1-carboxamide]",528
4,"CS(=O)(=O)Nc1cccc(N(CC23CCC(c4nc(C5CC5)no4)(CC2)CC3)C(=O)C2CC(F)(F)C2)c1 [Example 65, N-((4-(3-cyclopropyl-1,2,4-oxadiazol-5-yl)bicyclo[2.2.2]octan-1-yl)methyl)-3,3-difluoro-N-(3-(methylsulfonamido)phenyl)cyclobutane-1-carboxamide]",1280
5,"CS(=O)(=O)Nc1cccc(N(CC23CCC(c4nc(C5CC5)no4)(CC2)CC3)C(=O)[C@H]2C[C@](O)(C(F)(F)F)C2)c1 [Example 67, (1S,3S)-N-((4-(3-cyclopropyl-1,2,4-oxadiazol-5-yl)bicyclo[2.2.2]octan-1-yl)methyl)-3-hydroxy-N-(3-(methylsulfonamido)phenyl)-3-(trifluoromethyl)cyclobutane-1-carboxamide]",4000
6,"CS(=O)(=O)c1cccc(N(CC23CCC(c4nc(C5CC5)no4)(CC2)CC3)C(=O)C2CCC(F)(F)CC2)c1 [Example 69, N-((4-(3-cyclopropyl-1,2,4-oxadiazol-5-yl)bicyclo[2.2.2]octan-1-yl)methyl)-4,4-difluoro-N-(3-(methylsulfonyl)phenyl)cyclohexane-1-carboxamide]",4000
7,"CC(N(C(=O)C12CC(F)(C1)C2)c1cccc(C#N)c1)C12CCC(c3nc(C4CC4)no3)(CC1)CC2 (stereo not shown) [Example 70, N-(3-cyanophenyl)-N-(1-(4-(3-cyclopropyl-1,2,4-oxadiazol-5-yl)bicyclo[2.2.2]octan-1-yl)ethyl)-3-fluorobicyclo[1.1.1]pentane-1-carboxamide]",2000
8,"Cn1nc(C2CC2)cc1C12CCC(CN(C(=O)C3CCC(F)(F)CC3)c3cccc(C#N)c3)(CC1)CC2 [Example 73, N-(3-cyanophenyl)-N-((4-(3-cyclopropyl-1-methyl-1H-pyrazol-5-yl)bicyclo[2.2.2]octan-1-yl)methyl)-4,4-difluorocyclohexane-1-carboxamide]",2130
9,"Cn1nc(C2CC2)cc1C12CCC(CN(c3cccc(C#N)c3)C(=O)[C@H]3C[C@@](C)(O)C3)(CC1)CC2 [Example 74, (1S,3S)-N-(3-cyanophenyl)-N-((4-(3-cyclopropyl-1-methyl-1H-pyrazol-5-yl)bicyclo[2.2.2]octan-1-yl)methyl)-3-hydroxy-3-methylcyclobutane-1-carboxamide]",1350
10,"Cn1nc(C2CC2)cc1C12CCC(CN(c3cccc(C#N)c3)C(=O)[C@H]3C[C@](O)(C(F)(F)F)C3)(CC1)CC2 [Example 75, (1S,3S)-N-(3-cyanophenyl)-N-((4-(3-cyclopropyl-1-methyl-1H-pyrazol-5-yl)bicyclo[2.2.2]octan-1-yl)methyl)-3-hydroxy-3-(trifluoromethyl)cyclobutane-1-carboxamide]",1380
11,"Cn1nc(C2CC2)cc1C12CCC(CN(c3cccc(S(C)(=O)=O)c3)C(=O)[C@H]3C[C@](O)(C(F)(F)F)C3)(CC1)CC2 [Example 76, (1S,3S)—N-((4-(3-cyclopropyl-1-methyl-1H-pyrazol-5-yl)bicyclo[2.2.2]octan-1-yl)methyl)-3-hydroxy-N-(3-(methylsulfonyl)phenyl)-3-(trifluoromethyl)cyclobutane-1-carboxamide]",4000
12,"Cn1nc(C2CC2)cc1C12CCC(CN(C(=O)C3CCC(F)(F)CC3)c3cccc(S(C)(=O)=O)c3)(CC1)CC2 [Example 77, N-((4-(3-cyclopropyl-1-methyl-1H-pyrazol-5-yl)bicyclo[2.2.2]octan-1-yl)methyl)-4,4-difluoro-N-(3-(methylsulfonyl)phenyl) cyclohexane-1-carboxamide]",4000
13,"COC(=O)COc1cccc(N(CC23CCC(c4ccc(N(C)C)c(Cl)c4)(CC2)CC3)C(=O)C2CCCCC2)c1 [Example 79, Methyl 2-(3-(N-((4-(3-chloro-4-(dimethylamino)phenyl)bicyclo[2.2.2]octan-1-yl)methyl)cyclohexanecarboxamido)phenoxy) acetate]",1040
14,"COC(=O)COc1cccc(N(CC23CCC(c4ccc(N(C)C)cc4)(CC2)CC3)C(=O)C2CCCCC2)c1 [Example 80, Methyl 2-(3-(N-((4-(4-(dimethylamino)phenyl)bicyclo[2.2.2]octan-1-yl)methyl)cyclohexanecarboxamido)phenoxy) acetate]",1600
15,"COC(=O)COc1cccc(N(CC23CCC(c4ccc5c(cnn5C)c4)(CC2)OC3)C(=O)C2CCOCC2)c1 [Example 81, Methyl 2-(3-(N-((1-(1-methyl-1H-indazol-5-yl)-2-oxabicyclo[2.2.2]octan-4-yl)methyl)tetrahydro-2H-pyran-4-carboxamido)phenoxy) acetate]",4360
16,"Cc1noc(C23CCC(CN(C(=O)C4CCCCC4)c4cccc(C(=O)Nc5nccs5)c4)(CC2)CC3)n1 [Example 82, 3-(N-((4-(3-methyl-1,2,4-oxadiazol-5-yl)bicyclo[2.2.2]octan-1-yl)methyl)cyclohexanecarboxamido)-N-(thiazol-2-yl)benzamide]",3010

# Second part, the compound after the results:
row,EC50 [nM],Structure (SMILES)
1,4000,"CS(=O)(=O)Nc1cccc(N(CC23CCC(c4nc(C5CC5)no4)(CC2)CC3)C(=O)C23CC(F)(C2)C3)c1 [Example 66, N-((4-(3-cyclopropyl-1,2,4-oxadiazol-5-yl)bicyclo[2.2.2]octan-1-yl)methyl)-3-fluoro-N-(3-(methylsulfonamido)phenyl)bicyclo[1.1.1]pentane-1-carboxamide]"
2,1490,"CS(=O)(=O)c1cccc(N(CC23CCC(c4nc(C5CC5)no4)(CC2)CC3)C(=O)C23CC(F)(C2)C3)c1 [Example 68, N-((4-(3-cyclopropyl-1,2,4-oxadiazol-5-yl)bicyclo[2.2.2]octan-1-yl)methyl)-3-fluoro-N-(3-(methylsulfonyl)phenyl)bicyclo[1.1.1]pentane-1-carboxamide]"
3,993,"Cn1nc(C2CC2)cc1C12CCC(CN(C(=O)C34CC(F)(C3)C4)c3cccc(C#N)c3)(CC1)CC2 [Example 72, N-(3-cyanophenyl)-N-((4-(3-cyclopropyl-1-methyl-1H-pyrazol-5-yl)bicyclo[2.2.2]octan-1-yl)methyl)-3-fluorobicyclo[1.1.1]pentane-1-carboxamide]"
4,4000,"Cn1nc(C2CC2)cc1C12CCC(CN(C(=O)C34CC(F)(C3)C4)c3cccc(S(C)(=O)=O)c3)(CC1)CC2 [Example 78, N-((4-(3-cyclopropyl-1-methyl-1H-pyrazol-5-yl)bicyclo[2.2.2]octan-1-yl)methyl)-3-fluoro-N-(3-(methylsulfonyl)phenyl)bicyclo[1.1.1]pentane-1-carboxamide]"
5,1130,"CCOc1ccc(Nc2cccc(N(CC34CCC(c5nc(C(C)(C)C)no5)(CC3)CC4)C(=O)C34CC(F)(C3)C4)c2)cc1 [Example 83, N-((4-(3-(tert-butyl)-1,2,4-oxadiazol-5-yl)bicyclo[2.2.2]octan-1-yl)methyl)-N-(3-((4-ethoxyphenyl)amino)phenyl)-3-fluorobicyclo[1.1.1]pentane-1-carboxamide]"
6,84,"CC(C)(C)c1nc(C23CCC(CN(C(=O)C45CC(F)(C4)C5)c4cccc(Nc5ccc(OC(F)F)cc5)c4)(CC2)CC3)no1 [Example 84, N-((4-(5-(tert-butyl)-1,2,4-oxadiazol-3-yl)bicyclo[2.2.2]octan-1-yl)methyl)-N-(3-((4-(difluoromethoxy)phenyl)amino)phenyl)-3-fluorobicyclo[1.1.1]pentane-1-carboxamide]"
7,608,"CCOc1ccc(Nc2cccc(N(CC34CCC(c5noc(C(C)(C)C)n5)(CC3)CC4)C(=O)C34CC(F)(C3)C4)c2)cc1 [Example 85, N-((4-(5-(tert-butyl)-1,2,4-oxidial-3-yl)bicyclo[2.2.2]octan-1-yl)methyl)-N-(3-((4-ethoxyphenyl)amino)phenyl)-3-fluorobicyclo[1.1.1]pentane-1-carboxamide]"
8,519,"CCc1ccc(Nc2cccc(N(CC34CCC(c5noc(C(C)(C)C)n5)(CC3)CC4)C(=O)C34CC(F)(C3)C4)c2)cc1 [Example 86, N-((4-(5-(tert-butyl)-1,2,4-oxadiazol-3-yl)bicyclo[2.2.2]octan-1-yl)methyl)-N-(3-((4-ethylphenyl)amino)phenyl)-3-fluorobicyclo[1.1.]pentane-1-carboxamide]"
9,2000,"CC(C)(C)c1nc(C23CCC(CN(C(=O)C45CC(F)(C4)C5)c4cccc(Nc5ccc(C(F)(F)F)cc5)c4)(CC2)CC3)no1 [Example 87, N-((4-(5-(tert-butyl)-1,2,4-oxadiazol-3-yl)bicyclo[2.2.2]octan-1-yl)methyl)-3-fluoro-N-(3-((4-(trifluoromethyl)phenyl)amino)phenyl)bicyclo[1.1.1]pentane-1-carboxamide]"
